In data set [1] the target is xanthine oxidase (Bos taurus, UniProt P80457). The data set is described as follows: Fluorescence-quenching binding to xanthine oxidase. As to conditions: for Affinity n (number of binding sites per enzyme molecule): double-logarithm formula; for Affinity n (number of binding sites per enzyme molecule) / Affinity K sv (dynamic quenching constant): 25 °C; for Affinity K sv (dynamic quenching constant): xanthine oxidase 1.0 μmol L^−1 in PBS, λex 280 nm, emission 335 nm; for Quenching of xanthine oxidase fluorescence (in words): no binding constant value.

For data set [2] the following is noted: partition coefficient; ref https://pubchem.ncbi.nlm.nih.gov/compound/; cited from earlier work.

Sequence of xanthine oxidase (P80457 2-1332): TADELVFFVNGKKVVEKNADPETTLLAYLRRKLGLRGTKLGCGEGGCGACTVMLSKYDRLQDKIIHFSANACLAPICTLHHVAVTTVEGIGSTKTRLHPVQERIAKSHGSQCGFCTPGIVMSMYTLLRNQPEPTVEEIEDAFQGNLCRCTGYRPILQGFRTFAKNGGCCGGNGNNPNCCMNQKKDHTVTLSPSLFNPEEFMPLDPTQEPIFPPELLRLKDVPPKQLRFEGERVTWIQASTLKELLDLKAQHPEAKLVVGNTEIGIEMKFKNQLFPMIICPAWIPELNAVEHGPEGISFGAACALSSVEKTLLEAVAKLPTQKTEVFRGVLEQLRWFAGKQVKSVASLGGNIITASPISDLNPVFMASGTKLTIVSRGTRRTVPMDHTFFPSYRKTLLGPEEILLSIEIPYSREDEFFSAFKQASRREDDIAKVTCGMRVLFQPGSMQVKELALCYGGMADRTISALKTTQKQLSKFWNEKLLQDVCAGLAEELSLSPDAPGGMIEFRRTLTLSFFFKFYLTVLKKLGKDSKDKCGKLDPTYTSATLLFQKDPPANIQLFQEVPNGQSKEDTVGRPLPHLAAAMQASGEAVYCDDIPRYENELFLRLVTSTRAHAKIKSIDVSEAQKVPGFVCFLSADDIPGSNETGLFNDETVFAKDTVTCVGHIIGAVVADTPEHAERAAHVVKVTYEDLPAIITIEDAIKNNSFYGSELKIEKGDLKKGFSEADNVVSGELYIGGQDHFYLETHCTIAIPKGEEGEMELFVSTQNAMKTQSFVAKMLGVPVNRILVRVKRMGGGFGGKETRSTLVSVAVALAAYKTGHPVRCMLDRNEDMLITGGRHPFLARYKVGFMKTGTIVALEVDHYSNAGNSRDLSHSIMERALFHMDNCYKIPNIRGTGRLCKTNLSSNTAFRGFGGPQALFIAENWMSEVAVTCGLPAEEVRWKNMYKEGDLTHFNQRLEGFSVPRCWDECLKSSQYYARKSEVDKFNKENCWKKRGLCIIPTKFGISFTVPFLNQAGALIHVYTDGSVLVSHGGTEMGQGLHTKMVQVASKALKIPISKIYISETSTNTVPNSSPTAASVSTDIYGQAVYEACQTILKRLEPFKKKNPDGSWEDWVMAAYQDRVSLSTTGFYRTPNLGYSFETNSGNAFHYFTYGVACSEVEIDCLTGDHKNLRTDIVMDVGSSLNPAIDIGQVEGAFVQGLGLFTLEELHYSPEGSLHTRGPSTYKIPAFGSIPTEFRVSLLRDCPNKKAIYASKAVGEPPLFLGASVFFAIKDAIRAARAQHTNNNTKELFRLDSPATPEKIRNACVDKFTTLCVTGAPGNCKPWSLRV

`COc1c(O)cc2oc(-c3ccc(O)cc3)cc(=O)c2c1O` [Hispidulin]: in data set [1], the “Affinity n (number of binding sites per enzyme molecule)” value amounted to 1.2571 and the “Affinity K sv (dynamic quenching constant)” value (“Affinity K sv” below) is given as 0.0989 10^6. Besides, the “X log P3” value in data set [2] is listed as 1.7.
On to `O=c1c(O)c(-c2ccccc2)oc2cc(O)cc(O)c12` [Galangin], for which, in data set [1], the “Affinity n (number of binding sites per enzyme molecule)” value worked out at 0.9038 and the “Affinity K sv” value is reported as 0.0276 10^6. The “X log P3” value in data set [2] is recorded as 2.3.
Turning to `COc1ccc(-c2oc3cc(O)cc(O)c3c(=O)c2O)cc1` [Kaempferide], the “X log P3” value in data set [2] is listed as 2.2.
With `COc1ccc(-c2coc3cc(O)ccc3c2=O)cc1` [Formononetin], in data set [1], the “Affinity n (number of binding sites per enzyme molecule)” value came to 0.6866 and the “Affinity K sv” value is given as 0.0147 10^6. Further, in data set [2], the “X log P3” value is listed as 2.8.
For `O=c1c(O)c(-c2ccc(O)cc2)oc2cc(O)cc(O)c12` [Kaempferol], in data set [1], the “Affinity n (number of binding sites per enzyme molecule)” value turned out to be 1.0535 and the “Affinity K sv” value is 0.0225 10^6. The “X log P3” value in data set [2] is 1.9.
For `O=c1cc(-c2ccccc2)oc2cc(O)c(O)c(O)c12` [Baicalein], in data set [1], the “Affinity n (number of binding sites per enzyme molecule)” value is 1.5312 and the “Affinity K sv” value is on record as 0.1981 10^6. Moreover, the “X log P3” value in data set [2] is recorded as 1.7.
On to `O=c1cc(-c2ccccc2)oc2ccccc12` [Flavone], for which, in data set [1], the “Affinity n (number of binding sites per enzyme molecule)” value is reported as 1.3695 and the “Affinity K sv” value was 0.0552 10^6. In data set [2], the “X log P3” value is recorded as 3.6.
With `Oc1cc(O)c2c(c1)O[C@H](c1ccc(O)c(O)c1)[C@H](O)C2` [EC (2,3-cis), epicatechin], the “Quenching of xanthine oxidase fluorescence (in words)” value in data set [1] was “not able to quench the fluorescence”.
Consider `O=c1c(-c2ccc(O)cc2)coc2cc(O)ccc12` [Daidzein], for which, in data set [1], the “Affinity n (number of binding sites per enzyme molecule)” value worked out at 1.2554 and the “Affinity K sv” value is 0.0230 10^6.
As for `O=C1C[C@@H](c2ccc(O)cc2)Oc2cc(O)cc(O)c21` [Naringenin], the “Fold increase of affinity for xanthine oxidase after glycosylation” value in data set [1] (aglycone named, 3,7-glycosylation of kaempferol, 3-glycosylation of quercetin, 7-glycosylation of naringenin) is given as 73.3 times. For the same compound, the “Fold higher affinity for xanthine oxidase than the C2=C3 unsaturated counterpart” value in data set [1] (dihydromyricetin versus myricetin, naringenin versus apigenin) was determined as 4676 times. In addition, in data set [1], the “Affinity n (number of binding sites per enzyme molecule)” value is reported as 1.2510 and the “Affinity K sv” value is listed as 0.0568 10^6. In addition, the “X log P3” value in data set [2] is 2.4.
Turning to `O=C(O[C@@H]1Cc2c(O)cc(O)cc2O[C@@H]1c1cc(O)c(O)c(O)c1)c1cc(O)c(O)c(O)c1` [EGCG (2,3-cis), (−)-epigallocatechin gallate], in data set [1], the “Affinity n (number of binding sites per enzyme molecule)” value was 1.2461 and the “Affinity K sv” value is given as 0.0226 10^6.
`O=c1c(O)c(-c2ccc(O)c(O)c2)oc2cc(O)cc(O)c12` [Quercetin]: in data set [1], the “Affinity n (number of binding sites per enzyme molecule)” value is given as 1.0614 and the “Affinity K sv” value is recorded as 0.0477 10^6. For the same compound, the “X log P3” value in data set [2] was 1.5.
Regarding `C[C@@H]1O[C@@H](OC[C@H]2O[C@@H](Oc3c(-c4ccc(O)c(O)c4)oc4cc(O)cc(O)c4c3=O)[C@H](O)[C@@H](O)[C@@H]2O)[C@H](O)[C@H](O)[C@H]1O` [Rutin], in data set [1], the “Affinity n (number of binding sites per enzyme molecule)” value was 1.2904 and the “Affinity K sv” value is 0.0532 10^6. The “X log P3” value in data set [2] was −1.3.
`COc1c(O)cc2occ(-c3ccc(O)cc3)c(=O)c2c1O` [Tectorigenin]: in data set [1], the “Affinity n (number of binding sites per enzyme molecule)” value is listed as 0.6283 and the “Affinity K sv” value was 0.0644 10^6. Further, the “X log P3” value in data set [2] is given as 2.6.
As for `Oc1cc(O)c2c(c1)O[C@@H](c1cc(O)c(O)c(O)c1)[C@H](O)C2` [GC (2,3-trans), (−)-gallocatechin], the “Quenching of xanthine oxidase fluorescence (in words)” value in data set [1] is recorded as “not able to quench the fluorescence”.
Consider `O=C1c2c(O)cc(O)cc2O[C@H](c2cc(O)c(O)c(O)c2)[C@H]1O` [Dihydromyricetin], for which, in data set [1], the “Affinity n (number of binding sites per enzyme molecule)” value is listed as 1.2262 and the “Affinity K sv” value is reported as 0.0470 10^6. The “X log P3” value in data set [2] is 1.1.
Consider `O=c1c(O)c(-c2cc(O)c(O)c(O)c2)oc2cc(O)cc(O)c12` [Myricetin], for which, in data set [1], the “Affinity n (number of binding sites per enzyme molecule)” value is recorded as 1.0764 and the “Affinity K sv” value was 0.0294 10^6. Moreover, in data set [2], the “X log P3” value is reported as 1.2.
In the case of `C[C@@H]1O[C@@H](O[C@H]2[C@H](Oc3cc(O)c4c(c3)O[C@H](c3ccc(O)cc3)CC4=O)O[C@H](CO)[C@@H](O)[C@@H]2O)[C@H](O)[C@H](O)[C@H]1O` [Naringin], in data set [1], the “Affinity n (number of binding sites per enzyme molecule)” value was 1.6838 and the “Affinity K sv” value is on record as 0.0846 10^6. Besides, in data set [2], the “X log P3” value is recorded as −0.5.
As to `O=c1c(-c2ccc(O)cc2)coc2cc(O)cc(O)c12` [Genistein], in data set [1], the “Affinity n (number of binding sites per enzyme molecule)” value was found to be 1.3911 and the “Affinity K sv” value is 0.0537 10^6. In addition, the “X log P3” value in data set [2] is recorded as 2.7.
As to `C[C@@H]1O[C@@H](Oc2cc(O)c3c(=O)c(O[C@@H]4O[C@@H](C)[C@H](O)[C@@H](O)[C@H]4O)c(-c4ccc(O)cc4)oc3c2)[C@H](O)[C@H](O)[C@H]1O` [Kaempferitrin], the “X log P3” value in data set [2] is reported as −0.1.
`O=c1c(-c2ccc(O)cc2)coc2c([C@@H]3O[C@H](CO)[C@@H](O)[C@H](O)[C@H]3O)c(O)ccc12` [Puerarin]: in data set [1], the “Affinity n (number of binding sites per enzyme molecule)” value is 1.1801 and the “Affinity K sv” value was 0.0290 10^6. Further, in data set [2], the “X log P3” value is on record as 0.0.
On to `COc1ccc(-c2cc(=O)c3c(OC)c(OC)c(OC)c(OC)c3o2)cc1OC` [Nobiletin], for which, in data set [1], the “Affinity n (number of binding sites per enzyme molecule)” value amounted to 2.8371 and the “Affinity K sv” value is on record as 0.9637 10^6. The “X log P3” value in data set [2] is recorded as 3.0.
For `O=C(O)[C@H]1O[C@@H](Oc2cc3oc(-c4ccccc4)cc(=O)c3c(O)c2O)[C@H](O)[C@@H](O)[C@@H]1O` [Baicalin], in data set [1], the “Affinity n (number of binding sites per enzyme molecule)” value came out at 1.8782 and the “Affinity K sv” value was 0.3668 10^6. The “X log P3” value in data set [2] is given as 1.1.
On to `O=c1cc(-c2ccccc2)oc2cc(O)cc(O)c12` [Chrysin], for which, in data set [1], the “Affinity n (number of binding sites per enzyme molecule)” value came to 0.6025 and the “Affinity K sv” value is on record as 0.0195 10^6. Further, in data set [2], the “X log P3” value is 2.1.
As to `COc1ccc(-c2cc(=O)c3c(OC)c(OC)c(OC)c(OC)c3o2)cc1` [Tangeretin], in data set [1], the “Affinity n (number of binding sites per enzyme molecule)” value was 1.0022 and the “Affinity K sv” value is 0.1498 10^6. Also, the “X log P3” value in data set [2] is recorded as 3.0.
Turning to `O=c1c(O)c(-c2ccc(O)c(O)c2)oc2cc(O)ccc12` [Fisetin], in data set [1], the “Affinity n (number of binding sites per enzyme molecule)” value is listed as 1.3663 and the “Affinity K sv” value is reported as 0.0729 10^6. Besides, the “X log P3” value in data set [2] is listed as 2.0.
Take `O=c1cc(-c2ccc(O)cc2)oc2cc(O)cc(O)c12` [Apigenin]: in data set [1], the “Affinity n (number of binding sites per enzyme molecule)” value amounted to 0.4524 and the “Affinity K sv” value was 0.0285 10^6. The “X log P3” value in data set [2] was 1.7.
Take `O=c1cc(-c2ccc(O)c(O)c2)oc2cc(O)cc(O)c12` [Luteolin]: in data set [1], the “Affinity n (number of binding sites per enzyme molecule)” value is 1.3087 and the “Affinity K sv” value is on record as 0.0926 10^6. The “X log P3” value in data set [2] was 1.4.

Values taken from publication PMC9062502 (RSC Advances, 2019).
